Data published in paper PMC9229798, “Antioxidant Activity and Cytotoxicity of Aromatic Oligosulfides” (Molecules, 2022).

Assays:
[1] = set-up: method as in doi:10.1016/j.arabjc.2021.103068; conditions: read-out: DPPH IC50; cited from earlier work
[2] = TBARS accumulation in liver homogenate (long-term LPO); set-up: species or system Russian sturgeon; conditions: 0.1 mM
Source text: The liver is the main organ that all metabolic products pass through. In addition, proteins of the antioxidant defense system are concentrated in the liver, which prevent the toxic effects of various ROS. The oxidation of liver lipids, which compose cell membranes, directly causes cell damage in vivo. Therefore, the liver is similar to biological systems and is considered as a classic model system for studying LPO processes in vitro and in vivo [56]. We studied the antioxidant potential of the compounds on a model system of a long-term process of lipid peroxidation in sturgeon liver. The assay allowed evaluation of the effect of the compounds under prolonged oxidative stress when possible an increase in peroxidation processes and a decrease of antioxidants concentration over time, and inversion of antioxidant/prooxidant properties in vitro [57].
The experiments in vitro were carried out using the liver of a Russian sturgeon raised in a unique aqua complex for the reproduction of valuable fish species of the Federal Research Center Southern Scientific Center of the Russian Academy of Sciences within the framework of State Assignment (Project No. 122020100328-1). All manipulations were conducted according to the international rules GLP (Good Laboratory Practice). The samples of fish liver were fixed in the cold.
The LPO intensity was estimated according to the accumulation of carbonyl products forming a colored complex with thiobarbituric acid (TBARS). A liver of Russian sturgeon (10 g) was homogenized in the cold, and the studied compounds were added at a concentration of 0.1 mM in EtOH to a solution of 1.2% potassium chloride (390 mL) precooled to 0–4 °C. The absence of any influence of EtOH on the LPO rate in the control was preliminarily established under these conditions. […] The supernatant was sampled, and the extinction of sample was measured using a SF-103 spectrophotometer at λ = 532 nm relative to the control sample. […]

CC(C)(C)c1cc(SSc2cc(C(C)(C)C)c(O)c(C(C)(C)C)c2)cc(C(C)(C)C)c1O [Compound 6, bis(3,5-di-tert-butyl-4-hydroxyphenyl) disulfide]
IC50 [1]: 20.09 ± 0.02 µM

c1ccc(SSSc2ccccc2)cc1 [Compound 1, diphenyl trisulfide]
reduction of the level of TBARS ([2]; after 1 h of incubation): 64%
reduction of the level of TBARS ([2]; after 24 h): 48%
reduction of the level of TBARS ([2]; after 48 h): 37%
